ChEMBL document CHEMBL4622944 (Bioorg Med Chem Lett, 2020)

How the values were obtained:
Assay type in all cases: functional, cell-based
A549 = test: Antiproliferative activity against human A549 cells assessed as reduction in cell viability by MTT assay
PC-3 = test: Antiproliferative activity against human PC3 cells assessed as reduction in cell viability by MTT assay
HCT-116 = test: Antiproliferative activity against human HCT116 cells assessed as reduction in cell viability by MTT assay

Structure (SMILES) | IC50 (A549) [µM] | IC50 (PC-3) [µM] | IC50 (HCT-116) [µM]
Cn1c(=O)c(=O)n(C2CCCC2)c2nc(N/N=C/c3cccs3)ncc21 | > 100 | 75.6 | 52.6
Cc1cc(C)c(/C=N/Nc2ncc3c(n2)n(C2CCCC2)c(=O)c(=O)n3C)c(C)c1 | 12 | 13.9 | 7.92
Cn1c(=O)c(=O)n(C2CCCC2)c2nc(N/N=C/c3cccc(O)c3)ncc21 | > 100 | 36.3 | 37.2
Cn1c(=O)c(=O)n(C2CCCC2)c2nc(N/N=C/c3ccc(C(F)(F)F)cc3)ncc21 | 40.6 | 23.6 | 29
Cc1ccc(/C=N/Nc2ncc3c(n2)n(C2CCCC2)c(=O)c(=O)n3C)cc1C | 30.2 | 39 | 62.9
Cn1c(=O)c(=O)n(C2CCCC2)c2nc(N/N=C/c3ccc(Cl)cc3)ncc21 | 6.89 | 8.42 | 9.81
Cn1c(=O)c(=O)n(C2CCCC2)c2nc(N/N=C/c3ccc(O)c(F)c3)ncc21 | 97.8 | 85.2 | 59.3
Cn1c(=O)c(=O)n(C2CCCC2)c2nc(N/N=C/c3ccc(F)cc3Br)ncc21 | 6.59 | 9.25 | 8.39
Cn1c(=O)c(=O)n(C2CCCC2)c2nc(N/N=C/c3ccco3)ncc21 | > 100 | 72.2 | 78.7
Cn1c(=O)c(=O)n(C2CCCC2)c2nc(N/N=C/c3ccc(F)cc3F)ncc21 | 18.3 | 13.2 | 19.8

Continued, values first:

IC50 (A549) [µM] | IC50 (PC-3) [µM] | IC50 (HCT-116) [µM] | Structure (SMILES)
> 100 | > 100 | > 100 | COc1ccc(/C=N/Nc2ncc3c(n2)n(C2CCCC2)c(=O)c(=O)n3C)c(OC)c1
84.5 | 26.6 | 86.6 | Cn1c(=O)c(=O)n(C2CCCC2)c2nc(N/N=C/c3ccc(S(C)(=O)=O)cc3)ncc21
> 100 | 48.2 | > 100 | Cn1c(=O)c(=O)n(C2CCCC2)c2nc(N/N=C/c3ccccc3)ncc21
31.2 | 27.6 | 20.7 | Cn1c(=O)c(=O)n(C2CCCC2)c2nc(N/N=C/c3ccccc3F)ncc21
> 100 | > 100 | 72.5 | Cn1c(=O)c(=O)n(C2CCCC2)c2nc(N/N=C/c3ccc(O)cc3)ncc21
